The results in this text go back to PubChem BioAssay (NCI).

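Assay format: 96-well plates, 48-hour exposure. At the GI50, growth is halved. The concentration for full growth arrest is given as TGI.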

What all share (assay): growth of human tumour cells (NCI), 48 h
Experiment [1] has as its system CAKI-1 renal.
Experiment [2] concerns COLO 205 colon.
Experiment [3] has as its system DU-145 prostate.
In experiment [4] the test system is NCI/ADR-RES ovarian.
Experiment [5] concerns OVCAR-4 ovarian.
The subject of experiment [6] is SF-295 CNS.
For experiment [7], the system named is SF-539 CNS.
In experiment [8] the test system is SNB-19 CNS.
Experiment [9] deals with SR leukemia.
The test system of experiment [10] is SF-268 CNS.
Experiment [11] has as its system TK-10 renal.

Turning to `N[C@@H]1C[C@H](N)c2c(Cl)sc(Cl)c21`, the TGI in experiment [1], in experiment [2], in [3], in experiment [4], in experiment [5] and in experiment [6] was > 100 µM in each case. In addition, the TGI in experiment [7], in experiment [8] and in experiment [9] was > 100 µM in each case.

In the case of `COc1ccc(NC=O)c(C(O)CCNC(C)=O)c1` (stereo not given), the TGI in experiment [1], in experiment [2], in experiment [3], in [4], in [5] and in [10] was > 100 µM in each case. The TGI in experiment [6], in experiment [7], in [8], in experiment [9] and in experiment [11] was > 100 µM each time.

Consider `CC(=O)Nc1c(C)cc(OCC(=O)O)cc1C`, for which the TGI in experiment [1], in experiment [2], in experiment [3], in experiment [4], in experiment [5] and in experiment [10] was > 100 µM each time. The TGI in experiment [6], in [8], in experiment [9] and in [11] was > 100 µM throughout.

Take `COc1cc(C2c3cccc4cccc(c34)C3CCC(=O)N32)cc(O)c1O` (stereo not given): the TGI in [2] is > 50 µM; in experiment [3], > 50 µM; in experiment [4], > 50 µM; in experiment [5], 45 µM; in experiment [6] it was > 50 µM; in experiment [7], > 50 µM. Also, the TGI in experiment [8] was > 50 µM; in [9] it was 29.5 µM.

With `COc1ccc(NS(=O)CCc2ccccc2)cc1` (stereo not given), the TGI in experiment [1], in [2], in [3], in experiment [4], in experiment [10] and in [6] was > 100 µM in each case. Further, the TGI in experiment [7], in experiment [8], in experiment [9] and in experiment [11] was > 100 µM in each case.

As to `CCOC(=O)CNC(=O)C(CSC(=O)N(O)c1ccc(Br)cc1)NC(=O)CCC(N)C(=O)OCC` (stereo not given), the TGI in experiment [1], in experiment [2], in experiment [3], in experiment [4], in experiment [5] and in experiment [10] was > 50 µM throughout. Besides, the TGI in [6], in experiment [7], in [8] and in experiment [9] was > 50 µM in each case.

`CSc1nc(C)cc(Nc2ccc(O)c(CN3CCCCC3)c2)n1`: the TGI in experiment [1], in [2], in experiment [3], in experiment [4], in experiment [5] and in experiment [10] was > 100 µM throughout. Moreover, the TGI in experiment [6], in experiment [7], in experiment [8] and in experiment [9] was > 100 µM each time.

`CC(=O)c1c2c(cc3c1CC1(Cc4cc5c(cc4C1)CCC5)C3)CCC2`: the TGI in experiment [1], in experiment [3], in experiment [4], in experiment [5], in experiment [10] and in [6] was > 100 µM in each case. Also, the TGI in experiment [7], in experiment [8], in [9] and in experiment [11] was > 100 µM each time.

On to `NC(=S)N/N=C/c1cc(CN2CCOCC2)c(N)cn1`, for which the TGI in [1] was > 100 µM; in [2] it was > 100 µM; in [3], > 100 µM; in [4], 94.3 µM; in experiment [10], > 100 µM; in experiment [6], > 100 µM. Besides, the TGI in experiment [7] was 84.2 µM; in [8], > 100 µM; in [9] it was > 100 µM; in [11], > 100 µM.

As to `CCOC(=O)[C@H]1C[C@@H](C(=O)c2ccccc2)N2N=C(c3ccc(Br)cc3)C=C[C@H]12`, the TGI in experiment [1], in [2], in [3], in [4], in experiment [5] and in [10] was > 100 µM throughout. The TGI in [6], in experiment [8], in [9] and in [11] was > 100 µM in each case.

As to `O=C(Nc1ccccc1)N1CCNC1=S`, the TGI in experiment [1], in experiment [2], in experiment [3], in experiment [4], in experiment [5] and in [10] was > 100 µM in each case. For the same compound, the TGI in [6], in [7] and in experiment [9] was > 100 µM throughout.

Take `O=C(O)CCC(=O)Nc1ccc2c(c1)S(=O)(=O)N(CC(=O)O)C2=O`: the TGI in experiment [1], in [2], in experiment [3], in [4], in experiment [5] and in experiment [6] was > 100 µM throughout. Also, the TGI in experiment [7], in experiment [8], in experiment [9] and in experiment [11] was > 100 µM in each case.

With `CSc1nc(=S)[nH]c2n[nH]c(C)c12`, the TGI in [1], in experiment [2], in experiment [3], in [4], in [5] and in experiment [10] was > 100 µM throughout. Besides, the TGI in experiment [7], in experiment [8], in experiment [9] and in experiment [11] was > 100 µM each time.

Consider `COc1c(O)cc(/C=C/c2cc(O)cc3c2[C@@]2(C(=O)O3)c3c(O)cc(O)cc3OC2c2cccc(O)c2)cc1O` (stereo not given in full), for which the TGI is > 100 µM in [1]; > 100 µM in experiment [2]; > 100 µM in experiment [3]; 77.8 µM in experiment [4]; 91 µM in [5]; > 100 µM in [10]. In addition, the TGI in [7] was > 100 µM; in experiment [8], > 100 µM; in [9] it was 26.5 µM; in experiment [11], > 100 µM.

Turning to `COc1cc(/C=C2\CCCC3=C2NC(N)=NC3c2cc(OC)c(OC)c(OC)c2)cc(OC)c1OC` (stereo not given), the GI50 in experiment [1] was 1.44 µM; in [3] it was 3.36 µM; in experiment [4] it was 0.29 µM; in [5], 1.7 µM; in experiment [10], 2.42 µM; in [7], 3.27 µM. Besides, the figures for the GI50 in [9] and in [11] were 0.51 µM and 3.24 µM, respectively. The TGI in experiment [1] is 7.69 µM; in experiment [3] it was > 100 µM; in experiment [4] it was > 100 µM; in experiment [5], > 100 µM; in [10] it was > 100 µM; in experiment [7], > 100 µM. For the same compound, the TGI in [9] amounted to 3.74 µM; in experiment [11], 7.23 µM.

Take `CCn1c(=O)c2c(=O)[nH][nH]c2c2ccccc21`: the TGI in experiment [2], in experiment [3], in [4], in experiment [5], in experiment [6] and in experiment [7] was > 100 µM in each case. The TGI in [8], in experiment [9] and in experiment [11] was > 100 µM each time.

On to `CN(CCO)CC(=O)CC(O)(C(F)(F)F)C(F)(F)F`, for which the TGI is 90.3 µM in [1]; > 100 µM in experiment [2]; > 100 µM in experiment [3]; > 100 µM in [4]; > 100 µM in experiment [5]; > 100 µM in [6]. For the same compound, the TGI in experiment [7], in [8], in experiment [9] and in experiment [11] was > 100 µM each time.

As to `O=C(Cc1ccccc1)N/N=C(/CCN1CCCC1)CC(c1ccccc1)c1c(O)c2ccccc2oc1=O` (stereo not given), the TGI in [1] is > 100 µM; in experiment [2] it was 57.5 µM; in [3] it was > 100 µM; in [4], > 100 µM; in experiment [5], > 100 µM; in experiment [10], > 100 µM. Also, the TGI in experiment [7], in [8], in [9] and in [11] was > 100 µM each time.

Turning to `C1CSCC2(COC2)CS1`, the TGI in experiment [2], in [3], in experiment [4], in experiment [5], in experiment [10] and in [6] was > 100 µM each time. Further, the TGI in experiment [8], in [9] and in experiment [11] was > 100 µM throughout.

Take `CN(C(=O)C1=CCCCCC1)c1ccccc1I`: the TGI in experiment [1] is > 100 µM; in [2] it was 37.6 µM; in experiment [3], > 100 µM; in experiment [4] it was 68.7 µM; in [5], 86.9 µM; in [10], 95.9 µM. Besides, the TGI in [6], in experiment [8] and in experiment [9] was > 100 µM throughout.
